From patent US10392368B2, “Pyrazolo and triazolo bicyclic compounds as JAK kinase inhibitors” (THERAVANCE BIOPHARMA R&D IP, LLC, priority 2017, dated 2019)

What was measured:
JAK3 = target: T1, JAK3 (Homo sapiens, UniProt P52333); test: Biochemical JAK3 kinase assay (LanthaScreen); design: GST; purchased Life Technologies; conditions: for JAK3 (pKi)-JAK1 (pKi): selectivity JAK3 over JAK1, difference of pKi
T1 sequence (P52333 1-1124): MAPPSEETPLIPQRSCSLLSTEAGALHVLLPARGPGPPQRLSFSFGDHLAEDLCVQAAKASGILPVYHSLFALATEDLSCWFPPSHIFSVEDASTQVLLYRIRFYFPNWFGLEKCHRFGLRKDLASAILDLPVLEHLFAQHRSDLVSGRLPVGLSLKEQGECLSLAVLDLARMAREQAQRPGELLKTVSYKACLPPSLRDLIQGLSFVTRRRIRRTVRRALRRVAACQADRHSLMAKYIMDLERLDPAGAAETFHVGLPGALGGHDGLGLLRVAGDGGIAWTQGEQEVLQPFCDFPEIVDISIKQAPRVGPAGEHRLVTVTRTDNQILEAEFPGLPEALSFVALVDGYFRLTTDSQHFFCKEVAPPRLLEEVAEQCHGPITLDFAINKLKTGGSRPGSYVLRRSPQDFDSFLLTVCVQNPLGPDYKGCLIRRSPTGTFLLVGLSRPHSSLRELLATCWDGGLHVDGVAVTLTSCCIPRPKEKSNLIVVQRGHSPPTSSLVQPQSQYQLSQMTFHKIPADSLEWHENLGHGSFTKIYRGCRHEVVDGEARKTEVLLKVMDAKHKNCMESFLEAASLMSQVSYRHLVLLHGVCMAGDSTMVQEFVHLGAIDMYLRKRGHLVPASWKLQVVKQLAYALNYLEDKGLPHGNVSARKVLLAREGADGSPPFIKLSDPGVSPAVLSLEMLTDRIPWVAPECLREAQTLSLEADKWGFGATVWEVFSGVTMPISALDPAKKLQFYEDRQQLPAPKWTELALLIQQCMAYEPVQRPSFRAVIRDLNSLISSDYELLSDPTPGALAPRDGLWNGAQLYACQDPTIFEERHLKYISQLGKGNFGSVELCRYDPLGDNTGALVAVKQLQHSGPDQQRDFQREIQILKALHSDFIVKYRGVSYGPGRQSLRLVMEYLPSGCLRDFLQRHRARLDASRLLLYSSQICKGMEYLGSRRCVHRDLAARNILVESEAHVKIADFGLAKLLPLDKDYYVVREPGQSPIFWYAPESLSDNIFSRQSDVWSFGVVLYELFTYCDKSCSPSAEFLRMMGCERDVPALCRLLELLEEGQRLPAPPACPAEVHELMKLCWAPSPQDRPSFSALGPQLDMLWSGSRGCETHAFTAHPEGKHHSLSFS
How it was run: (§1)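 GST-tagged JAK enzyme and GFP-STAT1 peptide preincubated with compound 1 h, then ATP added; 1 h kinase reaction at ambient temperature, pH 7.5 HEPES/MgCl2 buffer, 1% DMSO. Tb-anti-pSTAT1 (pTyr701) TR-FRET, 520/495 nm ratio; IC50 from 4-parameter fit, converted to pKi via Cheng-Prusoff.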

Tyk2 = target: T2, Tyk2 (Homo sapiens, UniProt P29597); test: Biochemical Tyk2 kinase assay (LanthaScreen)
T2 construct: GST; purchased Life Technologies
How it was run: as §1

JAK2 = target: T3, JAK2 (Homo sapiens, UniProt O60674); test: Biochemical JAK2 kinase assay (LanthaScreen)
T3 construct: GST; purchased Life Technologies
How it was run: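 GST-tagged recombinant JAK2 pre-incubated 1 h at ambient temperature with compound and GFP-STAT1 peptide in HEPES pH 7.5/MgCl2 buffer, then ATP added for a 1 h reaction with 1% DMSO. TR-FRET read after EDTA and Tb-anti-pSTAT1 (pTyr701) addition; IC50 from 4-parameter fit, converted to pKi by Cheng-Prusoff.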

JAK1 = target: T4, JAK1 (Homo sapiens, UniProt P23458); test: Biochemical JAK1 kinase assay (LanthaScreen)
T4 construct: GST; purchased Life Technologies
How it was run: as §1

[1] = tested on: IL-2 stimulated pSTAT5 in Tall-1 T cells; test: Cellular JAK3 potency assay: inhibition of IL-2 stimulated pSTAT5 in Tall-1 T cells; format: cell-based, human; conditions: IL-2 stimulated pSTAT5, Tall-1 T cells
How it was run: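 Tall-1 human T cells (45,000/well) in phenol red-free DMEM with 10% FBS were preincubated with compound 1 h at 37 °C, then stimulated with IL-2 (final 300 ng/ml) for 30 min. Lysate pSTAT5 read by AlphaLisa; IC50 from inhibition curves, reported as pIC50 (mean±SD).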

T2 sequence (P29597 whole entry): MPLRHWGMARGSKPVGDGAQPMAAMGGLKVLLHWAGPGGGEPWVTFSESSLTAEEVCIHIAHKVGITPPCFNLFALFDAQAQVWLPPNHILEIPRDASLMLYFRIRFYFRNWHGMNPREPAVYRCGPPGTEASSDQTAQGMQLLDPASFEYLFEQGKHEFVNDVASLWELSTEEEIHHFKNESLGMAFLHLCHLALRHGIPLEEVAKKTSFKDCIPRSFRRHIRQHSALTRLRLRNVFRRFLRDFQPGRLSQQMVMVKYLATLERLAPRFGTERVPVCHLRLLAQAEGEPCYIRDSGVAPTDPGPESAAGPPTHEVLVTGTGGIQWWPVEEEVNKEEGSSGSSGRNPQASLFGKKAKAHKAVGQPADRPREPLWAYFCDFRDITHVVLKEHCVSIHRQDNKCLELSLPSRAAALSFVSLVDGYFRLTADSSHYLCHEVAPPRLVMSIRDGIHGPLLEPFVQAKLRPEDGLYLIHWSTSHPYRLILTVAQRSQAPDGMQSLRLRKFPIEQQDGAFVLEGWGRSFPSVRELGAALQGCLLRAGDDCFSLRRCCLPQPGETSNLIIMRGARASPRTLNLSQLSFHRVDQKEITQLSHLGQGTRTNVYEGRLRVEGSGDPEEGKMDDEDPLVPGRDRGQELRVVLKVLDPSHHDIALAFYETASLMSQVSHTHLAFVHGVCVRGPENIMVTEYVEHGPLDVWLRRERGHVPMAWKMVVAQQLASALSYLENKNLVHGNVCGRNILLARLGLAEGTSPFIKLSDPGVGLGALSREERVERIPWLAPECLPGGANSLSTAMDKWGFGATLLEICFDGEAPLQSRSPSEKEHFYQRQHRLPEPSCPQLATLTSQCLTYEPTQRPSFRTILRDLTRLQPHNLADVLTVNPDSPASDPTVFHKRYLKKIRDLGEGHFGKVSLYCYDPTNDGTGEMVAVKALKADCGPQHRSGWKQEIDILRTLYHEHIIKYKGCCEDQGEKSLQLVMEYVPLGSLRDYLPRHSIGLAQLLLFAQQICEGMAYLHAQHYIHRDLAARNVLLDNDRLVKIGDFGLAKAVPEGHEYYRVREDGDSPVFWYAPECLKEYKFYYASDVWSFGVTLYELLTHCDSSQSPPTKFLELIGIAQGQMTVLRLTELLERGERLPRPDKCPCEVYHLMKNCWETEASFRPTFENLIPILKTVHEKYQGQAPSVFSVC
T3 sequence (O60674 whole entry): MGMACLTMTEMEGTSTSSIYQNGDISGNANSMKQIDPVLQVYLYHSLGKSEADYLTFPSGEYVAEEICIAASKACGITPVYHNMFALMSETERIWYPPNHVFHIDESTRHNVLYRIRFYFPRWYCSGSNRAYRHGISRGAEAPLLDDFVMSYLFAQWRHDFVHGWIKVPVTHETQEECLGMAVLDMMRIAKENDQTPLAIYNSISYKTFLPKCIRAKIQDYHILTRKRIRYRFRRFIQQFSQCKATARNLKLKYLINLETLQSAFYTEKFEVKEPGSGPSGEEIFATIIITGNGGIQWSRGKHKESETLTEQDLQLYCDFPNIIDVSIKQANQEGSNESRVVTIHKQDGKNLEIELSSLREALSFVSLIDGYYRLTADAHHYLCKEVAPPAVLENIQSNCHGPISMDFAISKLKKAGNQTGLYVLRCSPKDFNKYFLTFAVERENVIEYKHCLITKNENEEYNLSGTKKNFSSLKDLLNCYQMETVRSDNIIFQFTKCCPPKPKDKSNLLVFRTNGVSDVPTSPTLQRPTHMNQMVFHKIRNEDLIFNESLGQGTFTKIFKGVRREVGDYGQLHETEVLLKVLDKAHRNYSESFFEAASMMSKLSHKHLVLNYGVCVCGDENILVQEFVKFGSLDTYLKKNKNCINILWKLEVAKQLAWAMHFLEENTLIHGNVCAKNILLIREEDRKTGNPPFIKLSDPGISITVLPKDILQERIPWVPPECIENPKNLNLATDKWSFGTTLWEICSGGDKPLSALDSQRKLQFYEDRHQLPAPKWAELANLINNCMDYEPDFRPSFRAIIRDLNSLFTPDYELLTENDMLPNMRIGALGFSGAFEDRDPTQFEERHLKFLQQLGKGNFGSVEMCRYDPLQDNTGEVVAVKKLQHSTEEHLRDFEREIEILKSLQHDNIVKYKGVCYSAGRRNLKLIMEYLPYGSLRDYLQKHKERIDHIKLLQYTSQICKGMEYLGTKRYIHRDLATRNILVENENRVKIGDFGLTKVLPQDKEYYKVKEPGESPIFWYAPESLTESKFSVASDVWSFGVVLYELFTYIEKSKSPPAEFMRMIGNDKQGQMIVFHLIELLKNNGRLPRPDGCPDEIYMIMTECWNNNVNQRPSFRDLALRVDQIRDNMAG
T4 sequence (P23458 whole entry): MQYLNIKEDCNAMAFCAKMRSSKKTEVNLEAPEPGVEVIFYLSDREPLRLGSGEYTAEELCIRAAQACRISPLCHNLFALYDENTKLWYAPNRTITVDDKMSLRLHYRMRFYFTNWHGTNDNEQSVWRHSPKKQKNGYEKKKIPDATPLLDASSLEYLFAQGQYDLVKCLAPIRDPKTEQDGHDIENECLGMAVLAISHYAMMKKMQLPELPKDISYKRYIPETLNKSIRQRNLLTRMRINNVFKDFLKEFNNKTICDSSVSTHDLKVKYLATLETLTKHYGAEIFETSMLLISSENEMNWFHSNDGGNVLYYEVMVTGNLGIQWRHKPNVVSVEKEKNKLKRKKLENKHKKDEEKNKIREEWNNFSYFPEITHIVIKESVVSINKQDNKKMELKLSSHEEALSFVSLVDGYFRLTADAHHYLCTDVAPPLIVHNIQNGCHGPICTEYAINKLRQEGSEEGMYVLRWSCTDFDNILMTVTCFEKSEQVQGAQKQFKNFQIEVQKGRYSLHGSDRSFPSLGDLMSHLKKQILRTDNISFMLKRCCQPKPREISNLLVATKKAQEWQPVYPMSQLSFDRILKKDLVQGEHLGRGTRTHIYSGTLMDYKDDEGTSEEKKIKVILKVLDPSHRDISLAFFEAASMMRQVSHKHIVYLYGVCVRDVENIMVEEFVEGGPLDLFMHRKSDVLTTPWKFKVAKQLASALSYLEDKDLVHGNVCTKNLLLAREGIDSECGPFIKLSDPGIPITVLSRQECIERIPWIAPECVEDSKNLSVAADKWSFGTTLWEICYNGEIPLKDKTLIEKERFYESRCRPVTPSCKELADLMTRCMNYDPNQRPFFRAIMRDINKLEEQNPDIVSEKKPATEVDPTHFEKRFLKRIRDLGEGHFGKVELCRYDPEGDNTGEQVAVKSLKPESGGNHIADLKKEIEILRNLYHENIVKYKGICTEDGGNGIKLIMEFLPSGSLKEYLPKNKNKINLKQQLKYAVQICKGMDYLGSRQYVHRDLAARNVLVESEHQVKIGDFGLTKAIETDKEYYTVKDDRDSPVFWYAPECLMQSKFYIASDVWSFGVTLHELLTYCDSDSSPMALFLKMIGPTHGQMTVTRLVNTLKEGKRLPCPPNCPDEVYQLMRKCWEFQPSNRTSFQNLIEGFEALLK

CN(C)C/C=C/C(=O)N1CC2(CC(Oc3cc(-c4ccc(O)c(F)c4)cc4[nH]ncc34)C2)C1 [Compound 15-5]
JAK 3 (pKi) (JAK3): B (a pKi value between 9 and 10 (Ki between 1 nM and 0.1 nM)) | JAK3 (pKi)-JAK1 (pKi) (JAK3): B (a value of 2.3 to 3) | Tyk 2 (pKi) (Tyk2): E (a pKi value of 7 or below (Ki of 100 nM or above)) | JAK 2 (pKi) (JAK2): D (a pKi value between 7 and 8 (Ki between 100 nM and 10 nM)) | JAK 1 (pKi) (JAK1): D (a pKi value between 7 and 8 (Ki between 100 nM and 10 nM)) | Tall-1 (pIC50) [1]: B (a pIC50 value between 6.7 (included) and 7.5 (IC50 between 200 nM and 32 nM))

C=CC(=O)N1CC2(CC(Oc3nc(-c4ccc(O)cc4)cc4[nH]ncc34)C2)C1 [Compound 15-7]
JAK 3 (pKi) (JAK3): B (a pKi value between 9 and 10 (Ki between 1 nM and 0.1 nM)) | JAK3 (pKi)-JAK1 (pKi) (JAK3): B (a value of 2.3 to 3) | Tyk 2 (pKi) (Tyk2): E (a pKi value of 7 or below (Ki of 100 nM or above)) | JAK 2 (pKi) (JAK2): D (a pKi value between 7 and 8 (Ki between 100 nM and 10 nM)) | JAK 1 (pKi) (JAK1): E (a pKi value of 7 or below (Ki of 100 nM or above)) | Tall-1 (pIC50) [1]: A (a pIC50 value≥7.5 (IC50≤32 nM))

C=CC(=O)N1CC2(CC(Oc3nc(-c4ccc(O)c(Cl)c4)nc4[nH]ncc34)C2)C1 [Compound 15-9]
JAK 3 (pKi) (JAK3): A (a pKi value≥10 (Ki≤0.1 nM)) | JAK3 (pKi)-JAK1 (pKi) (JAK3): A (a value of 3 or above) | Tyk 2 (pKi) (Tyk2): E (a pKi value of 7 or below (Ki of 100 nM or above)) | JAK 2 (pKi) (JAK2): E (a pKi value of 7 or below (Ki of 100 nM or above)) | JAK 1 (pKi) (JAK1): E (a pKi value of 7 or below (Ki of 100 nM or above)) | Tall-1 (pIC50) [1]: B (a pIC50 value between 6.7 (included) and 7.5 (IC50 between 200 nM and 32 nM))

C=CC(=O)N1CC2(CC(Oc3nc(-c4ccc(O)c(F)c4)nc4[nH]ncc34)C2)C1 [Compound 15-10]
JAK 3 (pKi) (JAK3): A (a pKi value≥10 (Ki≤0.1 nM)) | JAK3 (pKi)-JAK1 (pKi) (JAK3): A (a value of 3 or above) | Tyk 2 (pKi) (Tyk2): E (a pKi value of 7 or below (Ki of 100 nM or above)) | JAK 2 (pKi) (JAK2): E (a pKi value of 7 or below (Ki of 100 nM or above)) | JAK 1 (pKi) (JAK1): E (a pKi value of 7 or below (Ki of 100 nM or above)) | Tall-1 (pIC50) [1]: A (a pIC50 value≥7.5 (IC50≤32 nM))

CN(C)C/C=C/C(=O)N1CC(OCc2cc(-c3ccc(O)c(Cl)c3)cc3[nH]ncc23)C1 [Compound 16-1]
JAK 3 (pKi) (JAK3): A (a pKi value≥10 (Ki≤0.1 nM)) | JAK3 (pKi)-JAK1 (pKi) (JAK3): A (a value of 3 or above) | Tyk 2 (pKi) (Tyk2): E (a pKi value of 7 or below (Ki of 100 nM or above)) | JAK 2 (pKi) (JAK2): E (a pKi value of 7 or below (Ki of 100 nM or above)) | JAK 1 (pKi) (JAK1): E (a pKi value of 7 or below (Ki of 100 nM or above)) | Tall-1 (pIC50) [1]: B (a pIC50 value between 6.7 (included) and 7.5 (IC50 between 200 nM and 32 nM))

C=CC(=O)N1CC(OCc2cc(-c3ccc(O)c(Cl)c3)cc3[nH]ncc23)C1 [Compound 16-2]
JAK 3 (pKi) (JAK3): A (a pKi value≥10 (Ki≤0.1 nM)) | JAK3 (pKi)-JAK1 (pKi) (JAK3): A (a value of 3 or above) | Tyk 2 (pKi) (Tyk2): E (a pKi value of 7 or below (Ki of 100 nM or above)) | JAK 2 (pKi) (JAK2): E (a pKi value of 7 or below (Ki of 100 nM or above)) | JAK 1 (pKi) (JAK1): E (a pKi value of 7 or below (Ki of 100 nM or above)) | Tall-1 (pIC50) [1]: A (a pIC50 value≥7.5 (IC50≤32 nM))

C=CC(=O)N1CC(OCc2cc(-c3ccc(O)c(F)c3)cc3[nH]ncc23)C1 [Compound 16-3]
JAK 3 (pKi) (JAK3): B (a pKi value between 9 and 10 (Ki between 1 nM and 0.1 nM)) | JAK3 (pKi)-JAK1 (pKi) (JAK3): A (a value of 3 or above) | Tyk 2 (pKi) (Tyk2): E (a pKi value of 7 or below (Ki of 100 nM or above)) | JAK 2 (pKi) (JAK2): E (a pKi value of 7 or below (Ki of 100 nM or above)) | JAK 1 (pKi) (JAK1): E (a pKi value of 7 or below (Ki of 100 nM or above)) | Tall-1 (pIC50) [1]: A (a pIC50 value≥7.5 (IC50≤32 nM))
